# Measurements taken from patent US20220395496A1 (Hoffmann-La Roche Inc., priority 2019, published 2022).
# Target: T1, human TLR7 (Homo sapiens, UniProt Q9NYK1)
# T1 sequence (Q9NYK1 27-1049): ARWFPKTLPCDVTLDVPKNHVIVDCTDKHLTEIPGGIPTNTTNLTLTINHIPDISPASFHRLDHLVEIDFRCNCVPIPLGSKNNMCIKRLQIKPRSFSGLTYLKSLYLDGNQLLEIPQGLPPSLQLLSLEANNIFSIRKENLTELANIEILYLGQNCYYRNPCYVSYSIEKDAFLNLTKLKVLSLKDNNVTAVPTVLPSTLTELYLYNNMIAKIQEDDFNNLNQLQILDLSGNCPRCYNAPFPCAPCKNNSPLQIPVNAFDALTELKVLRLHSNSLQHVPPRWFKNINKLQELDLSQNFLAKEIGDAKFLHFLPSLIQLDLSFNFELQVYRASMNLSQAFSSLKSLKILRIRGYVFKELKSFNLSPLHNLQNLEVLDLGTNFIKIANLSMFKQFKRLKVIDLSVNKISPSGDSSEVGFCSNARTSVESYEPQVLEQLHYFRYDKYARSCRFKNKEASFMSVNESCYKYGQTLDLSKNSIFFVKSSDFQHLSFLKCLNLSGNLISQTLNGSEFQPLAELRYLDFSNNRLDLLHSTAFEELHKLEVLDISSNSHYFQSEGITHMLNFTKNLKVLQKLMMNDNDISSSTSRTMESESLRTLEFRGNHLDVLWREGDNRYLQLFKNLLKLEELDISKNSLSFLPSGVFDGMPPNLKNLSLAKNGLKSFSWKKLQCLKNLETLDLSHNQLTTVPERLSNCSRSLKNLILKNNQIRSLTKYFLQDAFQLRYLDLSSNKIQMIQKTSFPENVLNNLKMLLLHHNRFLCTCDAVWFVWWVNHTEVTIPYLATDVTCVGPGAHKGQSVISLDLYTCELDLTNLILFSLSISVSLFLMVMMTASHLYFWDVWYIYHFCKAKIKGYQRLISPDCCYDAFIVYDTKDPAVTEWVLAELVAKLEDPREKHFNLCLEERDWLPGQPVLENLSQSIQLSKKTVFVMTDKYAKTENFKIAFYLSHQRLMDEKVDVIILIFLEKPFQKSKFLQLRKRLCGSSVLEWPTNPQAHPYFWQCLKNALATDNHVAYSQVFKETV
# Experiment: HEK293-Blue-hTLR-7 cells assay (SEAP reporter, R848 stimulation)
# Type: cell-based
# Settings: HEK293-Blue-hTLR7 cells, R848, 20 hrs; lowest tested concentration 0.0032
# Procedure: The following tests were carried out in order to determine the activity of the compounds of this invention in HEK293-Blue-hTLR-7/8/9 cells assay.
# HEK293-Blue-hTLR-7 Cells Assay:
# A stable HEK293-Blue-hTLR-7 cell line was purchased from InvivoGen (Cat. #: hkb-htlr7, San Diego, Calif., USA). These cells were originally designed for studying the stimulation of human TLR7 by monitoring the activation of NF-κB. A SEAP (secreted embryonic alkaline phosphatase) reporter gene was placed under the control of the IFN-β minimal promoter fused to five NF-κB and AP-1-binding sites. The SEAP was induced by activating NF-κB and AP-1 via stimulating HEK-Blue hTLR7 cells with TLR7 ligands. Therefore the reporter expression was declined by TLR7 antagonist under the stimulation of a ligand, such as R848 (Resiquimod), for incubation of 20 hrs. The cell culture supernatant SEAP reporter activity was determined using QUANTI-Blue™ kit (Cat. #: rep-qb1, Invivogen, San Diego, Calif., USA) at a wavelength of 640 nm, a detection medium that turns purple or blue in the presence of alkaline phosphatase.
# HEK293-Blue-hTLR7 cells were incubated at a density of 250,000˜450,000 cells/mL in a volume of 170 μL in a 96-well plate in Dulbecco's Modified Eagle's medium (DMEM) containing 4.5 g/L glucose, 50 U/mL penicillin, […], […], 2 mM L-glutamine, 10% (v/v) heat-inactivated fetal bovine serum with addition of 20 μL test compound in a serial dilution in the presence of final DMSO at 1% and 10 μL of 20 uM R848 in above DMEM, perform incubation under 37° C. in a CO2 incubator for 20 hrs. Then 20 μL of the supernatant from each well was incubated with 180 μL Quanti-blue substrate solution at 37° C. for 2 hrs and the absorbance was read at 620-655 nm using a spectrophotometer. The signalling pathway that TLR7 activation leads to downstream NF-κB activation has been widely accepted, and therefore similar reporter assay was modified for evaluating TLR7 antagonist.
row,SMILES,IC50 [nM]
1,"C[C@H]1C[C@@H](NCc2ccc(N3CCNCC3)cc2)CN(c2ccc(C#N)c3nccnc23)C1 [Example 3, 8-[(3S,5R)-3-methyl-5-[(4-piperazin-1-ylphenyl)methylamino]-1-piperidyl]quinoxaline-5-carbonitrile]",30
2,"C[C@H]1C[C@@H](NCc2cnc(N3CCN(C)CC3)nc2)CN(c2ccc(C#N)c3ncccc23)C1 [Example 16, 5-[(3S,5R)-3-methyl-5-[[2-(4-methylpiperazin-1-yl)pyrimidin-5-yl]methylamino]-1-piperidyl]quinoline-8-carbonitrile]",11
3,"C[C@H]1C[C@@H](NCc2ccc(N3CCC(N)C3)cc2)CN(c2ccc(C#N)c3ncccc23)C1 (stereo partly drawn) [Example 13, 5-[(3R,5S)-3-[[4-(3-aminopyrrolidin-1-yl)phenyl]methylamino]-5-methyl-1-piperidyl]quinoline-8-carbonitrile]",19
4,"C[C@H]1C[C@@H](NCc2ccc(N3CCNCC3)cn2)CN(c2ccc(C#N)c3ncccc23)C1 [Example 5, 5-[(3S,5R)-3-methyl-5-[(5-piperazin-1-yl-2-pyridyl)methylamino]-1-piperidyl]quinoline-8-carbonitrile]",17
5,"C[C@H]1C[C@@H](NCc2ccc(N3CCN(C)CC3)cn2)CN(c2ccc(C#N)c3ncsc23)C1 [Example 18, 7-[(3S,5R)-3-methyl-5-[[5-(4-methylpiperazin-1-yl)-2-pyridyl]methylamino]-1-piperidyl]-1,3-benzothiazole-4-carbonitrile]",11
6,"C[C@H]1C[C@@H](NCc2ccc(N3CCNCC3)cc2)CN(c2ccc(Cl)c3ncccc23)C1 [Example 22, (3R,5S)-1-(8-chloro-5-quinolyl)-5-methyl-N-[(4-piperazin-1-ylphenyl)methyl]piperidin-3-amine]",23
7,"C[C@H]1C[C@@H](N(C)Cc2ccc(N3CCNCC3)cc2)CN(c2ccc(C#N)c3ncccc23)C1 [Example 9, 5-[(3S,5R)-3-methyl-5-[methyl-[(4-piperazin-1-ylphenyl)methyl]amino]-1-piperidyl]quinoline-8-carbonitrile]",15
8,"C[C@H]1C[C@@H](NCc2ccc(N3CCN(C)CC3)cc2)CN(c2ccc(C#N)c3ncccc23)C1 [Example 7, 5-[(3S,5R)-3-methyl-5-[[4-(4-methylpiperazin-1-yl)phenyl]methylamino]-1-piperidyl]quinoline-8-carbonitrile]",16
9,"CC(N[C@@H]1C[C@H](C)CN(c2ccc(C#N)c3ncccc23)C1)c1ccc(N2CCNCC2)cc1 (stereo partly drawn) [Example 26, 5-[(3S,5R)-3-methyl-5-[1-(4-piperazin-1-ylphenyl)ethylamino]-1-piperidyl]quinoline-8-carbonitrile]",91
10,"C[C@H]1C[C@@H](NCc2ccc3c(c2)CCNC3)CN(c2ccc(C#N)c3ncccc23)C1 [Example 11, 5-[(3S,5R)-3-methyl-5-(1,2,3,4-tetrahydroisoquinolin-6-ylmethylamino)-1-piperidyl]quinoline-8-carbonitrile]",15
11,"C[C@H]1C[C@@H](N2CCc3cc(N4CCNCC4)ccc3C2)CN(c2ccc(C#N)c3ncccc23)C1 (relative stereo) [Example 24, 5-[cis-3-methyl-5-(6-piperazin-1-yl-3,4-dihydro-1H-isoquinolin-2-yl)-1-piperidyl]quinoline-8-carbonitrile]",52
12,"C[C@H]1C[C@@H](NCc2cccc(N3CCNCC3)c2)CN(c2ccc(C#N)c3ncccc23)C1 [Example 8, 5-[(3S,5R)-3-methyl-5-[(3-piperazin-1-ylphenyl)methylamino]-1-piperidyl]quinoline-8-carbonitrile]",39

# Now from value to compound:
row,IC50 [nM],SMILES
1,13,"C[C@H]1C[C@@H](NCc2ccc(N3CCNCC3)cc2F)CN(c2ccc(C#N)c3ncccc23)C1 [Example 4, 5-[(3R,58)-3-[(2-fluoro-4-piperazin-1-yl-phenyl)methylamino]-5-methyl-1-piperidyl]quinoline-8-carbonitrile]"
2,≤ 3,"C[C@H]1C[C@@H](NCc2cnc(N3CCNCC3)cn2)CN(c2ccc(C#N)c3ncccc23)C1 [Example 31, 5-[(3S,5R)-3-methyl-5-[(5-piperazin-1-ylpyrazin-2-yl)methylamino]-1-piperidyl]quinoline-8-carbonitrile]"
3,12,"C[C@H]1C[C@@H](NCc2cnc(N3CCN[C@H](C)C3)nc2)CN(c2ccc(C#N)c3ncccc23)C1 [Example 28, 5-[(3S,5R)-3-methyl-5-[[2-[(3R)-3-methylpiperazin-1-yl]pyrimidin-5-yl]methylamino]-1-piperidyl]quinoline-8-carbonitrile]"
4,42,"C[C@H]1C[C@@H](NCc2cccc(N3CCN(C)CC3)c2)CN(c2ccc(C#N)c3ncccc23)C1 [Example 6, 5-[(3S,5R)-3-methyl-5-[[3-(4-methylpiperazin-1-yl)phenyl]methylamino]-1-piperidyl]quinoline-8-carbonitrile]"
5,15,"C[C@H]1C[C@@H](NCc2ncc(N3CCNCC3)cn2)CN(c2ccc(C#N)c3ncccc23)C1 [Example 25, 5-[(3S,5R)-3-methyl-5-[(5-piperazin-1-ylpyrimidin-2-yl)methylamino]-1-piperidyl]quinoline-8-carbonitrile]"
6,8,"C[C@H]1C[C@@H](NCc2cnc(N3CCN[C@@H](C)C3)nc2)CN(c2ccc(C#N)c3ncccc23)C1 [Example 29, 5-[(3S,5R)-3-methyl-5-[[2-[(3S)-3-methylpiperazin-1-yl]pyrimidin-5-yl]methylamino]-1-piperidyl]quinoline-8-carbonitrile]"
7,16,"C[C@H]1C[C@@H](NCc2ccc3c(n2)CCNC3)CN(c2ccc(C#N)c3ncccc23)C1 [Example 30, 5-[(3S,5R)-3-methyl-5-(5,6,7,8-tetrahydro-1,6-naphthyridin-2-ylmethylamino)-1-piperidyl]quinoline-8-carbonitrile]"
8,84,"Cc1cc(-c2ccc(CN[C@@H]3C[C@H](C)CN(c4ccc(C#N)c5ncccc45)C3)cc2)cc(C)n1 [Example 15, 5-[(3R,5S)-3-[[4-(2,6-dimethyl-4-pyridyl)phenyl]methylamino]-5-methyl-1-piperidyl]quinoline-8-carbonitrile]"
